Paper PMC11267536, “Gonococcal Mimitope Vaccine Candidate Forms a Beta-Hairpin Turn and Binds Hydrophobically to a Therapeutic Monoclonal Antibody” (JACS Au, 2024)
Values joined by “and” are separate entries in the source; they are usually repeats but may differ in a detail not shown here. Identical values can stand only once. Bridges are numbered along the chain shown (N, C = ends).

Legend:
gonococci = conditions: ref previous studies, cited from earlier work
From the text: The spread of multidrug-resistant strains of Neisseria gonorrhoeae, the etiologic agent of gonorrhea, represents a global health emergency. Therefore, the development of a safe and effective vaccine against gonorrhea is urgently needed. […] Furthermore, we identified a peptide, cyclic peptide 2 (CP2) that mimicked the 2C7 LOS epitope, elic ... || Neisseria gonorrhoeae is a leading cause of sexually transmitted infections, which include urethritis, cervicitis, pharyngitis, locally invasive (epididymitis and salpingo-oophritis) and disseminated infections, and in rare cases, meningitis and endocarditis.[1] Infections in women are frequently asymptomatic, which augments the spread of bacteria among populations. Further, strains have emerged that are resistant to multiple antibiotics, which have the potential to lead to untreatable infections. […] Therefore, a random peptide display library was used to identify a peptide, designated as PEP1, which bound mAb 2C7. […] Subsequently, PEP1 was covalently cyclized to yield CP2 and configured as a tetramer (designated tetra-MAP CP2 or TMCP2). TMCP2 adjuvanted wit ...

gonococcal colonization = conditions: cited from earlier work
From the text: The spread of multidrug-resistant strains of Neisseria gonorrhoeae, the etiologic agent of gonorrhea, represents a global health emergency. Therefore, the development of a safe and effective vaccine against gonorrhea is urgently needed. […] Furthermore, we identified a peptide, cyclic peptide 2 (CP2) that mimicked the 2C7 LOS epitope, elic ... || Neisseria gonorrhoeae is a leading cause of sexually transmitted infections, which include urethritis, cervicitis, pharyngitis, locally invasive (epididymitis and salpingo-oophritis) and disseminated infections, and in rare cases, meningitis and endocarditis.[1] Infections in women are frequently asymptomatic, which augments the spread of bacteria among populations. Further, strains have emerged that are resistant to multiple antibiotics, which have the potential to lead to untreatable infections. Thus, the development of vaccines and novel therapeutics, including nonantibiotic approaches, is ... || Gonococcal lipooligosaccharide (LOS) is the most abundant component of the outer membrane. Antibodies against LOS can elicit complement-dependent bacterial killing, and therefore, LOS has been pursued as a vaccine candidate (reviewed in ref ([12])). A murine anti-LOS monoclonal antibody (mAb) 2C7 was isolated almost four decades ago.[13],[14] […]

mAb 2C7 [1] = experiment: Isothermal titration calorimetry (ITC); type: binding, Human-mouse chimeric; conditions: 20 °C
Procedure: Isothermal titration calorimetry (ITC) experiments were carried out at 20 °C by using a MicroCal PEAQ-ITC instrument. mAb and peptide CP2 were both dialyzed against PBS pH 7.4 to avoid buffer mismatch between solutions. A solution of mAb with a concentration of 30 μM was loaded into the cell, and for each measurement, CP2 was added to the antibody solution through a microsyringe under a stirrer speed of 750 rpm. The titration was performed by adding 2 μL from a 1.67 mM CP2 solution for 19 injections using a time duration of 150 s. The data were analyzed and fitted by using the one-binding site model. The standard thermodynamic parameters of equilibrium were calculated by the following equation[45]: [drawing 2] 2 where ΔG is the Gibb’s free energy, Ka is the equilibrium constant, R is the gas constant, T is the temperature in kelvin, ΔH is the enthalpy change, and ΔS is the entropy change.

mAb 2C7 [2] = experiment: WaterLOGSY, CPMG and 1D NH chemical shift perturbation NMR; type: binding, Human-mouse chimeric
Procedure: (§1) NMR spectra were recorded on a Bruker AVANCE NEO 600-MHz equipped with a cryo probe, and data acquisition and processing were performed with TOPSPIN 4.1.1 software. Samples were prepared in H2O:D2O (90:10) buffered with 50 mM phosphate at pH 7.4, using 3 mm NMR tubes. NMR spectra were acquired using antibody concentrations of 10–20 μM, a peptide concentration of 1 mM, and an antibody:peptide ratio from 1:18 to 1:50, depending on the NMR experiments, and temperatures of 288 and 298 K; 0.05 mM amount of deuterated trimethylsilylpropanoic acid (TSP) was used as an internal standard.
The waterLOGSY experiments were performed on CP2 in the absence and presence of the mAb, using a conventional 1D NOE-ePHOGSY pulse sequence[36] provided in the Bruker library (ephogsygpno.2). The bulk water was selectively irradiated by 1D NOESY, and the solvent suppression was modified into a double pulsed-field gradient (DPFG) perfect-echo.[37] A mixing time of 2s was used in order to compare the WaterLOGSY experiment with the STD NMR experiment.
A mixture of 20 μM mAb2C7 and 1 mM CP2 peptide was prepared in deuterated phosphate saline buffer pH 7.4. Pseudo 2D experiments (cpmg_esgp2d) were used for detecting T2 spin–spin relaxation measurements. Data were analyzed by fitting the equation f(t) = Io × exp (−t/T) using Dynamics Center 2.7.1.

mAb 2C7 [3] = experiment: STD NMR titration of CP2 into mAb 2C7; type: binding, Human-mouse chimeric; conditions: STD-AF of methyl signals, one-site Langmuir model, saturation time 2 s, CP2 0.17-1.70 mM, 50 mM phosphate pH 7.4, H2O:D2O 90:10, 288 and 298 K, read-out: apparent equilibrium dissociation constant (KD)
Procedure: Chimeric mAb 2C7 and the sequence for the VH and VL regions of murine mAb 2C7 have been described previously.[18] Human-mouse chimeric mAb 2C7 was expressed in ExpiCHO cells and purified by affinity chromatography of tissue culture supernatants using Protein A/G agarose. Chimeric Fab 2C7 was expressed in CHO cells and purified by affinity chromatography with an anti-CH1 antibody (LakePharma).
as §1
STD NMR experiments were acquired with 32,000 data points and zero-filled up to 64,000 data points prior to processing. The protein resonances were selectively irradiated using 40 Gauss pulses with a length of 50 ms, setting the off-resonance pulse frequency at 40 ppm and the on-resonance pulse at 5.5 ppm. An excitation sculpting with gradient pulses (esgp) was applied for the suppression of water signals. […]

gonococcal strains = conditions: cited from earlier work
From the text: Gonococcal lipooligosaccharide (LOS) is the most abundant component of the outer membrane. Antibodies against LOS can elicit complement-dependent bacterial killing, and therefore, LOS has been pursued as a vaccine candidate (reviewed in ref ([12])). A murine anti-LOS monoclonal antibody (mAb) 2C7 was isolated almost four decades ago.[13],[14] 2C7 recognizes an LOS epitope that comprises lactose from heptose (Hep) II; lactose from HepI or GlcNAc may also contribute to the 2C7 epitope (see Supporting Information, Scheme S1). This mAb reacted with 94% of 68 gonococcal strains examined in the cerv ...

[4] = target: human-mouse chimeric mAb 2C7 (mouse | human | mouse VL, human constant region); experiment: ITC; 20 °C, PBS pH 7.4; 30 uM mAb in the cell, 1.67 mM CP2 in the syringe, 19 injections of 2 uL; one-site model
[5] = target: human-mouse chimeric mAb 2C7 (mouse | human | mouse VL, human constant region); experiment: NMR titration; STD NMR; CP2 (0.17 to 1.70 mM) titrated into a solution of mAb; 50 mM phosphate pH 7.4, H2O:D2O 90:10; saturation time 2 s; one-site Langmuir isotherm; apparent

For “Br-Ac-Gly-Pro-Ile-Pro-Val-Leu-Asp-Glu-Asn-Gly-Leu-Phe-Ala-Pro-Gly-Pro-Cys-Lys-OH (sidechain bridge or staple) [CP2]”, the bactericidal antibodies (gonococci; mice) is listed as “elicited bactericidal antibodies in mice”, the active protection (gonococcal colonization; mouse vaginal colonization model, ref previous studies) is listed as “actively protected in a mouse vaginal colonization model” and the ΔG (mAb 2C7 [1]; PBS pH 7.4) is listed as -6.24 kcal/mol. The “ΔG (exothermic process)” value (mAb 2C7 [1]; PBS pH 7.4) was < 0, the ΔH (mAb 2C7 [1]; PBS pH 7.4) was -1.71 ± 0.0707 kcal/mol and -1.71 kcal/mol and the “−TΔS” value (mAb 2C7 [1]; PBS pH 7.4) was -4.52 kcal/mol. For the same molecule, the “binding stoichiometry N (sites)” value (mAb 2C7 [1]; one-site binding model, PBS pH 7.4) was 1.89 ±4.4e-2 and 1.89, the Kd (mAb 2C7 [1]; one-site binding model, PBS pH 7.4, mAb 30 μM, 1.67 mM CP2, 19 injections of 2 μL) was 23 µM and the “transverse relaxation time T2 (CPMG)” value (mAb 2C7 [2]; 20 μM mAb 2C7, 1 mM CP2, deuterated phosphate saline buffer pH 7.4) was “indicative of complex formation”. The WaterLOGSY binding (mAb 2C7 [2]; change in peak phase from free to bound state, mixing time 2 s) was “the change in the peak phase passing from the free to the bound state is indicative of binding”, the “1D NH chemical shift perturbation” value (mAb 2C7 [2]; mixture of mAb 2C7 with CP2) was “a few chemical shift perturbations” and the Kd (mAb 2C7 [3]) was 61 µM.

B1: Murine mAb 2C7: murine anti-LOS monoclonal antibody 2C7 (antibody, V domains shown)
VH: EVQLQQSGPELVKPGSSVKISCKGSGYTFTDYNMEWVKQSHGKSLEWIGVINPNNRFTSYNQNFRGKATLTVDKSSSTAYMDLRSLTSEDSAVYFCAGSRWYQYDYWGQGTTLTVSS
VL: QVVVTQESALTTSPGETVTLTCRSSTGAVTTSNYANWVQEKPDHLFTGLIGGINNRAPGVPARFSGSLIADKAALTITGAQTEDEAIYFCALWYSNHWVFGGGTKLTVL
For B1, the complement-dependent bactericidal activity (gonococci; against gonococci) is listed as “elicits complement-dependent bactericidal activity against gonococci”, the “duration and burden of gonococcal colonization” value (gonococcal colonization; mouse vaginal model) is listed as “decreased the duration and burden of gonococcal colonization” and the gonococcal strains recognized (gonococcal strains; 68 gonococcal strains examined in the cervical secretions of women) is listed as 94%. For the same molecule, the clinical isolates recognized (gonococcal strains; 75 minimally passaged clinical isolates, Nanjing, China) was 100%.

B2: cyclic peptide 2 (CP2) (peptide)
peptide: GPIPVLDENGLFAPGPCK-OH
modifications: bridge N-17; not fully specified (N-terminus, bridges)
Molecule B2 has a Kd [4] of 23 µM, a dH [4] of -1.71 kcal/mol and a stoichiometry N [4] of 1.89 CP2 per mAb. For the same molecule, the Kd [5] was 61 µM.
